Laboratory results taken from US9975917B1, “Pentacyclic triterpenoidal derivatives” (KING SAUD UNIVERSITY, priority 2017, dated 2018).

What was measured:
[1] = molecular target: T1, 5-Lipoxygenase (Rattus norvegicus, UniProt P12527); experiment: 5-LOX product formation from 20 μM exogenous substrate in 105,000 g supernatants of rat PMNL, cell-free (System B); assay type: biochemical; conditions: cell-free 105,000 g supernatant of rat PMNL, 20 μM arachidonic acid, 1 mM ATP, 1.8 mM CaCl2, 37° C. 5 min; means±standard deviation, n=6
T1 construct: from 20 μM exogenous substrate in 105.000 g supernatants of rat PMNL (System B); from tissue; host or cells: 105,000 g supernatant of sonicated peritoneal PMNL of Wistar rats
T1 sequence (P12527 1-673): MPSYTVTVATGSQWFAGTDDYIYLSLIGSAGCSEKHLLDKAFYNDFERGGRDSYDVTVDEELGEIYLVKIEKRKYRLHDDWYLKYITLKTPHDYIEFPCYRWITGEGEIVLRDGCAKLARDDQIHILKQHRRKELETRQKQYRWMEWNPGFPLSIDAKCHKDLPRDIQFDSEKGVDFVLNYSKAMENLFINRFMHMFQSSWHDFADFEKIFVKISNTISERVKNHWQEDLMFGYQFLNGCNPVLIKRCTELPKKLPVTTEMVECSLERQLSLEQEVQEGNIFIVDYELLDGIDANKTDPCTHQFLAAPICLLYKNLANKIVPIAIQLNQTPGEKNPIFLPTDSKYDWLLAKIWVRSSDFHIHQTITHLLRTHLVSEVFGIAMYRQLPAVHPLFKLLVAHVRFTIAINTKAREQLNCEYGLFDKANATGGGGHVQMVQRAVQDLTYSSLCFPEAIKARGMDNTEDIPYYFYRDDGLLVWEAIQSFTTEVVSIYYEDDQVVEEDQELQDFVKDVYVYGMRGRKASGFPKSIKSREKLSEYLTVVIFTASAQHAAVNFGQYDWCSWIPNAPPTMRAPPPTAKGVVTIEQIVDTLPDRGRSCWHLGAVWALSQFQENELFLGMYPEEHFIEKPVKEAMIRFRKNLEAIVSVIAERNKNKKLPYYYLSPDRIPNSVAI
Procedure: (§1) Glycogen-elicited rat peritoneal PMNL were collected 4 hours after the injection of a glycogen solution (5%) in Dulbecco's phosphate-buffered saline (PBS) into the peritoneum of 300-350 g Wistar rats. The washed cells (>90% PMNL) were lysed at 2×10^7 cells mL^−1 by sonication (3×5 s, digital Sonifier) in PBS containing 1 mm EDTA, and were subjected to sequential centrifugation at 10,000 and 105,000 g for 10 and 60 min (4° C.), respectively. Freshly obtained PMNL suspensions and aliquots of the 105,000 g supernatants were assayed for 5-lipoxygenase activity.
(§2) For 5-lipoxygenase product formation from endogenous arachidonic acid, glycogen-elicited rat peritoneal PMNL (1×10^7 cells) were stimulated at 37° C. for 5 min by ionophore A23187 and Ca^2+. The 5-lipoxygenase activity in the cell-free system was tested in aliquots (corresponding to 1×10^7 cells) of the 105,000 g supernatant fraction of rat PMNL in the presence of 1 mm ATP, 1.8 mM CaCl2, 1 mM EDTA, and 20 μM arachidonic acid at 37° C. for 5 min. In both intact cells and cell-free tests, the incubations were terminated by cooling to 4° C. and acidification to pH of 3 with formic acid. For inhibition studies, the test compounds dissolved in dimethyl sulphoxide (DMSO) were added 5 min prior to initiation.
(§3) Inhibitors and non-inhibitory pentacyclic triterpenes were added simultaneously. All incubations, including controls, were carried out in the presence of 0.5% DMSO. The 5-lipoxygenase products were quantified after the addition of 170 ng PGB2 as an internal standard by extraction, with RP-HPLC separation and ultraviolet detection of products. With intact rat PMNL and the 105,000 g supernatant fraction the main products from arachidonic acid of 5 min incubations were leukotriene B4 (LTB4), 6-trans-LTB4, 12-epi-6-trans-LTB4 and 5-HETE along with negligible amounts of 5(S), 12(S)-diHETE.
(§4) FIG. 2 is a graph showing the effects of the pentacyclic triterpenoidal derivatives on 5-Lox product formation for System A. FIG. 3 is a graph showing the effects of the pentacyclic triterpenoidal derivatives on 5-Lox product formation for System B. Inhibition concentrations (IC50) of the biological effect of each of the compounds were determined after logit-log transformation of the data for each experiment. Data of independent observations (n=6) are shown as means±standard deviation.

[2] = molecular target: T1, 5-Lipoxygenase; experiment: 5-LOX product formation from endogenous arachidonic acid in ionophore-stimulated intact rat PMNL (System A); assay type: cell-based; conditions: ionophore A23187 and Ca2+, 37° C. 5 min, means±standard deviation, n=6
Procedure: as §1, §2, §3, §4

| IC50 [1] [µM] | IC50 [2] [µM] | melting point [°C] | Structure (SMILES) |
| --- | --- | --- | --- |
| 0.098 | 0.078 | 300 | CC1CCC2(C)CCC3(C)C(=CC(=O)C4C5(C)CCC(=O)C(C)(C(=O)c6ccccc6)C5CCC43C)C2C1C (centres unmarked) [Compound 4, 3,11-dioxo-24(phenyl)-urs-12-en-24-one] |
| 0.24 | 0.12 | 267 | CC1CCC2(C)CCC3(C)C(=CC(=O)C4C5(C)C=CC(=O)C(C)(c6ccccc6)C5CCC43C)C2C1C (centres unmarked) [Compound 7, 24-nor-urs-1,12-diene-24(phenyl)-3,11-dione] |
| 0.044 | 0.021 |  | CC1CCC2(C)CCC3(C)C(=CC(=O)C4C5(C)C=CC(=O)C(C)(C(=O)c6ccccc6)C5CCC43C)C2C1C (centres unmarked) [Compound 6, 3,11-dioxo-24(Phenyl)-urs-1,12-diene-24-one] |

Second part, the compound before the results:

| Structure (SMILES) | IC50 [1] [µM] | IC50 [2] [µM] | melting point [°C] |
| --- | --- | --- | --- |
| CC1CCC2(C)CCC3(C)C(=CC(=O)C4C5(C)CCC(O)C(C)(C(=O)O)C5CCC43C)C2C1C (stereo not drawn) [11-keto-β-boswellic acid/1, 11-keto-β-boswellic acid, reference compound] | 14.6 | 2.8 |  |
| CC1CCC2(C)CCC3(C)C(=CC(=O)C4C5(C)CCC(=O)C(C)(C(=O)Cl)C5CCC43C)C2C1C (stereo not drawn) [Compound 3, 3,11-dioxo-urs-12-en-24β-acid chloride] | 0.34 | 0.19 |  |
| CC(=O)O[C@@H]1CC[C@@]2(C)[C@@H](CC[C@]3(C)[C@@H]2C(=O)C=C2[C@@H]4[C@@H](C)[C@H](C)CC[C@]4(C)CC[C@]23C)[C@@]1(C)C(=O)O [AKBA, Acetyl-11-keto-β-boswellic acid, reference compound] | 7 | 1.5 |  |
| CC1CCC2(C)CCC3(C)C(=CC(=O)C4C5(C)CCC(=O)C(C)(c6ccccc6)C5CCC43C)C2C1C (centres unmarked) [Compound 5, 24-norurs-12-en-24(phenyl)-3,11-dione] | 0.28 | 0.17 | 256 |
